These results are taken from article PMC11392399, “The final walk with preptin” (PLOS ONE, 2024).

In assay [1] the test system is IR-A in IM-9 lymphocytes. The assay can be described thus: Competitive binding assay for IR-A with [125I]-monoiodotyrosyl-TyrA14-insulin. Further details: species or system human. To be noted: tracer 125I-insulin, only at the concentrations > 10^-6M, n ≥ 3. The source says: (§1) We also tested whether non-labeled preptins can bind to any of receptors for IGF2 (i.e. IR, IGF1R and IGF2R) in competitive binding assays, employing ^125I-labeled human insulin, IGF1 or IGF2. To determine binding to the IGF1R, we used mouse fibroblasts transfected with human IGF1R and with deleted mouse IGF1R (R+39 cells), according to Hexnerova et al.. We used non-transfected 3T3 fibroblasts to determine binding to IGF2R, because these cells contain essentially only IGF2R [5] and we used human IM-9 lymphocytes to determine affinity for IR-A [31].
(§2) Binding affinities of ligands for IGF1R were determined with [^125I]-Iodotyrosyl-IGF1 (2,614 Ci/mmol) prepared in the IOCB radioisotope laboratory by a procedure described in Kertisova et al.. Binding affinities for IR-A were determined with [^125I]-monoiodotyrosyl-TyrA14-insulin (2,200 Ci/mmol), prepared as described by Asai et al.. […]
(§3) The dissociation constant (Kd) values were determined with GraphPad Prism 8, using a nonlinear regression method, a one-site fitting program and considering the potential depletion of free ligand. […] Relative binding affinities were calculated as (Kd of the native hormone/Kd of analog) × 100 (in %). The relative binding affinity S.D. values of analogs were calculated as S.D. = Kd of the native hormone/Kd of peptide ×100 × √[(S.D. native/Kd native)^2 + (S.D. analog/Kd analog)^2].

In assay [2] the test system is intracellular calcium in U-2 OS osteoblasts. As to the kind of experiment: Changes in intracellular calcium, U-2 OS osteoblasts. The assay is classed as cell-based, human. To be noted: U-2 OS cells; 10^−4 M; Fluo-8 fluorescence, (Fmax−F0)/F0; one-way ANOVA. The protocol:
(§4) The day before the experiment, U-2 OS, MC3T3-E1, MIN6 and cAMP-HEK cells were seeded 6 000 (for osteoblastic cell lines U-2 OS, MC3T3-E1), 10 000 (for cAMP-HEK cells) or 30 000 (MIN6) cells per well in a black 384-well format micro plate with transparent bottom (Cat.#: 142761, Nunc, Thermo Fisher Scientific, USA). On the next day, the cultivation media was exchanged for assay buffer, consisting of HBSS (Cat.#: H6648-500ML, Sigma-Aldrich, Merck, Germany), 20 mM HEPES (Cat.#: L0180-100, Biowest, France), 2.5 mM Probenecid (Cat.#: P8761, Sigma-Aldrich, Merck, Germany), adjusted for pH 7.4 and supplemented with 4.77 μM CalciFluor™ Fluo-8, AM (Cat.#: 1345980-40-6, Santa Cruz Biotechnology, USA). After 45 min incubation with assay buffer in 37°C and 5% CO2, the cells were incubated at RT in a dark place for another 15 minutes. After this time, preptin and its analogs were added by the Agilent Bravo Automated Liquid Handling Platform (Agilent Technologies, USA). The kinetics were measured by the Spark® multimode reader from Tecan (Tecan Group Ltd., Switzerland) for 10 min (approximately 45 cycles, excitation 485 nm, emission 535 nm, band width 10 nm). Before each kinetics, the background fluorescence (F0) was measured and the result was calculated as (Fmax−F0)/F0, where Fmax corresponds to the maximum response upon stimulation by the compounds. Each compound was tested in concentration 10^−4 M.
On the technique in general: Calcium assays in cells follow changes in intracellular calcium, usually with a dye or a luminescent sensor.

Assay [3] has as its system intracellular calcium in MIN6 pancreatic beta cells. The assay can be described thus: Changes in intracellular calcium, MIN6 cells. The assay is classed as cell-based, mouse. To be noted: 10^−4 M, Fluo-8 fluorescence, (Fmax−F0)/F0, one-way ANOVA. The protocol:
as §4, with “Each compound was tested in concentration 10^−4 M.” left out

For assay [4], the system named is hBMSC-TERT. As to the kind of experiment: Osteoblast differentiation of hBMSC-TERT, alkaline phosphatase (ALP) activity assay. The assay is classed as cell-based, human. To be noted: for ALP activity normalized to cell viability, compared to unstimulated cells: 100 ng/ml, 500 ng/ml and 1 ug/ml, day 7 of OB differentiation, changes not significant; for osteoblast differentiation of hBMSCs: summary in the conclusions. The protocol: hBMSC-TERT were plated at a density of 20 000 cells/cm^2 (Alizarin Red S staining) and 5 000 cells/well (ALP activity assay) in MEM medium (Gibco), supplemented with 10 % FBS (Gibco) and 1 % P/S (Gibco). One day after seeding, the medium was replaced with OB induction medium, composed of basal medium, supplemented with 10 mM B-glycerophosphate (Sigma-Aldrich), 10 nM dexamethasone (Sigma-Aldrich), 50 μg/mL vitamin C (Sigma-Aldrich), 10 nM vitamin D3 (Sigma-Aldrich) and treated with 100 ng/ml, 500 ng/ml and 1 ug/ml IGF2, IGF1, IGF2, preptin or vehicle (acetic acid) as a control. The medium was changed every other day for 7 days (ALP activity assay) or 10 days (Alizarin Red S staining).
ALP activity and cell viability assay were quantified at Day 7 of OB differentiation, in order to normalize the ALP activity data to the number of viable cells.
Cell viability assay was measured using a Cell Titer-Blue Assay Reagent (Promega) at fluorescence intensity (579Ex/584Em). ALP activity was detected by absorbance at 405 nm, using p-nitrophenyl phosphate (Sigma-Aldrich) as substrate.

The test system of assay [5] is human primary osteoblasts. To be noted: 8 days, ref [17] Bosetti et al.; cited from earlier work.
Assay [6] deals with phosphorylation of Akt in MC3T3-E1 preosteoblasts. As to the kind of experiment: Stimulation of phosphorylation of Akt, MC3T3-E1 preosteoblasts. The assay is classed as cell-based, mouse. To be noted: 10^-8M, 5 min at RT, Western blot, n = 4, one-way ANOVA. The method, then: For measuring activation of intracellular signaling pathways, 40 000 of MC3T3-E1, U-2 OS and 3T3-R- cells per well and 100 000 of MIN6 cells per well were seeded in a 24-well plate, two days before stimulation. Cells’ stimulations were done after overnight starvation in a clean culture medium without serum. Cells were stimulated using preptins and their analogs at 10^-8M concentration for 5 min at RT. Cells were washed with PBS and froze immediately. Samples for immunoblots were prepared in Sample lysis buffer (62,5 mM Tris/HCl, 2 % SDS (w/v), 10 % glycerol (v/v), 0,01 % Brom-phenol Blue (w/v), 0,1M DTT, 50mM NaF, 1mM Na3VO4, 0,5 % protease inhibitory complex (v/v), pH 6,8).
Western blots were similarly used to study signaling pathways activated by our preptins in all cell lines mentioned above. Proteins were routinely analyzed using immunoblotting. […] The data are expressed as the contribution of target phosphorylation relative to non-stimulated cells (MC3T3-E1, U-2 OS, 3T3-R- and MIN6). Mean ± S.D. (n = 4) values were calculated. The significance of the changes in stimulation of phosphorylation in relation to unstimulated cells was calculated, using the One-way-ANOVA comparing all preptins and their analogs versus control non-stimulated cells.
(In general: A western blot detects proteins with antibodies after separation by electrophoresis.)

The subject of assay [7] is cAMP in U-2 OS osteoblasts. As to the kind of experiment: Changes in cAMP levels (GloSensor), U-2 OS osteoblasts. It counts as cell-based, human. To be noted: 10^−4 M, GloSensor luminescence, (Lmax−L0)/L0, forskolin positive control. The method, then:
Intracellular cAMP concentration was measured using Promega’s Glosensor on osteoblasts U-2 OS, pancreatic β-cells MIN6 and control cAMP-HEK cells (with stable transfection of F22 plasmid as described above). U-2 OS cells were transfected with F22 plasmid (pGloSensor™-22F, Promega, USA, 6.1 μg of plasmid per 1 million cells) using X-tremeGENE (Sigma-Aldrich, Germany). The ratio of plasmid and transfection reagent was 1:3 (plasmid: X-tremeGENE, m/v). The MIN6 cells were transfected with F22 plasmid in the same concentration as U-2 OS using electroporation by the Invitrogen™ Neon™ Transfection System Instrument (Thermo Fisher Scientific, USA, transfection conditions: 1400 V, 20 ms, 1 pulse). […]
After 24 hours (U-2 OS and cAMP-HEK cells) or 48 hours, respectively (MIN6 cells), cultivation media was changed for assay buffer (HBSS buffer with 20 mM HEPES and 2% (v/v) (cAMP-HEK, U-2 OS cells) or 6% (v/v), respectively (MIN6 cells), GloSensor™ reagent stock solution). The plate was incubated in the dark for 1–2 hours at RT and luminescence was measured until a stable signal was observed (L0). […] The luminescence kinetics were measured by Spark® for 30 min. The result was calculated as (Lmax−L0)/L0, where Lmax corresponds to the maximum response upon stimulation by the compounds. […]

Assay [8] has as its system IGF2R. As to the kind of experiment: Competitive binding assay for IGF2R with [125I]-monoiodotyrosyl-Tyr2-IGF2. Details: species or system mouse. To be noted: R- cells with IGF2R; tracer 125I-IGF2; n ≥ 3.
Excerpt: as §1, §2, §3

The subject of assay [9] is human IGF1R. The assay can be described thus: Competitive binding assay for IGF1R with [125I]-Iodotyrosyl-IGF1. To be noted: fibroblasts with IGF1R (R+39 cells); tracer 125I-IGF1; n ≥ 3.
Excerpt: as §1, §2, §3

Assay [10] deals with intracellular calcium in U-2 OS cells. To be noted: previous paper, different method, ref [21]; cited from earlier work. An excerpt: It is well known that Ca^2+ regulates numerous physiological cellular processes as a second messenger. It plays a vital role in the regulation of cell proliferation, and its increased level is critical for secretagogue-induced insulin release in pancreatic beta cells. […] If preptin or its analogs were proficient insulin secretagogues or had any effect on bone cells, we would e ...

No end group written: not given here.

Regarding “DVSTPPTVLPDNFPRYPVGKFFQYDTWKQSTQRL [peptide 1, native human preptin]”, in [1], the “binding to IR-A” value was “weak binding”.
On to “DVSTSQAVLPDDFPRYPVGZFFQYDTWRQSAGRL [peptide 15, Mouse preptin with Aib (Z) at position 20]”, for which the “changes in intracellular calcium relative to non-stimulated cells” value in assay [2] is “significant increase in intracellular calcium levels”.
In the case of “DVTTSQAVLPDDFPRY [peptide 17, Mouse preptin fragment]”, the “changes in intracellular calcium relative to non-stimulated cells” value in [3] was “completely inhibited calcium secretion”.
In the case of “FPRYPVGKFFQYNTW-NH2 [peptide 18, Mouse preptin fragment, amino acids 13–27, amidated C-end]”, in assay [2], the “changes in intracellular calcium relative to non-stimulated cells” value was “significant increase in intracellular calcium levels”.
“IGF2: insulin-like growth factor 2, comparator hormone”: in [4], the “ALP activity normalized to cell viability, compared to unstimulated cells” value is “signs of higher ALP activity” and the “osteoblast differentiation of hBMSCs” value is given as “neither preptin nor IGF2 significantly increased”. In addition, the “change in ALP activity” value in [5] is reported as “no significant effects”.
“PVGKFFQYDTWKQSTQRL [peptide 3, Human preptin fragment]”: the “binding to IR-A” value in assay [1] is “weak binding”.
Regarding “TWKQSTQRL-NH2 [peptide 13, Human preptin fragment]”, in [6], the “phosphorylation of Akt relative to non-stimulated cells” value is recorded as “Significantly lower phosphorylation of Akt”. Also, the “changes in cAMP levels relative to non-stimulated cells” value in [7] is recorded as “significant decrease of cAMP”.
On to “WKQSTQRL-NH2 [peptide 12, Human preptin fragment]”, for which, in assay [6], the “phosphorylation of Akt relative to non-stimulated cells” value is “Significantly lower phosphorylation of Akt”.
For “preptin: 34-amino acid peptide derived from pro-IGF2; species or peptide number not stated at the place (DVSTPPTVLPDNFPRYPVGKFFQYDTWKQSTQRL; Preptin; UniProt P01344 93-126, looked up)”, the “displacement of native ligand from IGF2R” value in assay [8] is “did not displace native ligands even at the highest concentrations used”. The “displacement of native ligand from IGF1R” value in assay [9] is reported as “did not displace native ligands even at the highest concentrations used”. For the same substance, in assay [4], the “ALP activity normalized to cell viability, compared to unstimulated cells” value is recorded as “signs of higher ALP activity” and the “osteoblast differentiation of hBMSCs” value was “neither preptin nor IGF2 significantly increased”. Besides, the “change in ALP activity” value in [5] was “no significant effects”. In addition, the “changes in intracellular calcium levels” value in [10] is “able to induce changes in intracellular calcium levels”.
